Measured values published in PubChem BioAssay AID732 (Emory University Molecular Libraries Screening Center, 2007).
“And” between values parts separate entries of the source, which are not always exact repeats. Equal values may be shown once. The source made the active and inactive calls. The rule behind the calls is not given here.

System: in vivo angiogenesis, blood vessel count
Assay: angiogenesis inhibition in living animals, in vivo study, HTS (AID 732);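 note: zebrafish embryos dosed at one day post fertilization; 0% = reference inhibitor and 100% = plate mean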
Conditions: stronger effect = lower value;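 tested at 30 µM in the well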

SMILES | vessel count % control
CCCn1c(=O)c2[nH]c(-c3ccc(OCC(=O)Nc4ccc(C#N)cc4)cc3)nc2n(CCC)c1=O | 84.9% (inactive)
CC[C@H](C)C(=O)O[C@H]1CCC=C2C=C[C@H](C)[C@H](CC[C@@H]3C[C@@H](O)CC(=O)O3)[C@H]21 | 88.5% (inactive)
C[C@H](N)CN1CCc2ccc(Br)cc21 | 126% (inactive)
C[N+](C)(CCCCCC[N+](C)(C)CCCN1C(=O)c2cccc3cccc(c23)C1=O)CCCN1C(=O)c2cccc3cccc(c23)C1=O | 115% (inactive)
C[C@H](NC(=O)/C(C#N)=C/c1ccc(O)c(O)c1)c1ccccc1 | 102% (inactive)
Cc1ccccc1C(OCCN(C)C)c1ccccc1 (stereo not drawn) | 108% (inactive)
CN1CCN2c3ccccc3Cc3ccccc3C2C1 (stereo not drawn) | 72.3% (inactive)
C[C@@H]1O[C@@H](O[C@H]2C[C@@H](O)[C@]3(CO)[C@H]4[C@H](O)C[C@]5(C)[C@@H](C6=CC(=O)OC6)CC[C@]5(O)[C@@H]4CC[C@]3(O)C2)[C@H](O)[C@H](O)[C@H]1O | 109% (inactive)
Cc1cccc2c(C3=Nc4ccccc4C3=O)c(O)[nH]c12 | 26.6%
O=c1ccn([C@@H]2O[C@H](COP(=O)(O)OP(=O)(O)O)[C@@H](O)[C@H]2O)c(=O)[nH]1 | 140% (inactive)
CN1CCCC1CCOC(C)(c1ccccc1)c1ccc(Cl)cc1 (stereo not drawn) | 67.5% (inactive)
CN1CCC(=C2c3ccccc3CC(=O)c3sccc32)CC1 | 105% (inactive)
N#CC(C#N)=Cc1cc(O)c(O)c(O)c1 | 107% (inactive)
CC(C)C[C@H](NC(=O)[C@H](O)[C@H](N)Cc1ccccc1)C(=O)O | 104% (inactive)
CC(=O)c1ccc(S(=O)(=O)NC(=O)NC2CCCCC2)cc1 | 84.8% (inactive)
CC(Cc1ccc(O)cc1)NCC(O)c1cc(O)cc(O)c1 (stereo not drawn) | 114% (inactive)
C[C@H](CS)C(=O)N1CCC[C@H]1C(=O)O | 100% (inactive)
C[N+](C)(C)CCOC(=O)CCC(=O)OCC[N+](C)(C)C | 94.4% (inactive)
COC(=O)[C@@H](N)Cc1ccc(O)c(O)c1 | 99.1% (inactive)
CCCCOc1cc(CC2CNC(=O)N2)ccc1OC (stereo not drawn) | 106% (inactive)
N=c1nc(N2CCCCC2)cc(N)n1O | 114% (inactive)
CC[N+](CC)(CC)CC | 112% (inactive)
Oc1cc(O)c2c(c1)O[C@H](c1ccc(O)c(O)c1)[C@@H](O)C2 | 114% (inactive)
CN(C(=O)Cc1ccc(Cl)c(Cl)c1)C(CN1CCCC1)c1cccc(OCC(=O)O)c1 (stereo not drawn) | 124% (inactive)
NCCCC(N)(C(=O)O)C(F)F (stereo not drawn) | 80.5% (inactive)

SMILES | vessel count % control
CC(N)(C(=O)O)c1ccc(C(=O)O)cc1 (stereo not drawn) | 93.5% (inactive)
Nc1cc(=O)[nH]c(N)n1 | 119% (inactive)
CCCCS(=N)(=O)CC[C@H](N)C(=O)O (stereo partly drawn) | 93% (inactive)
Nc1c2c(nc3ccccc13)CCCC2 | 91.9% (inactive)
C[C@@H]1O[C@H](C[N+](C)(C)C)CS1 | 89.1% (inactive)
CCOC(=O)C1=C(C)NC(C)=C(C(=O)OC)C1c1cccc(Cl)c1Cl (stereo not drawn) | 56% (inactive)
O=S(=O)(NCCNC/C=C/c1ccc(Br)cc1)c1cccc2cnccc12 | 90.3% (inactive)
CC(=O)c1c(O)c(C)c(O)c(Cc2c(O)c3c(c(C(=O)/C=C/c4ccccc4)c2O)OC(C)(C)C=C3)c1O | 0% (inactive)
Cc1cc(C(C)(C)C)cc(C)c1CC1=NCCN1 | 101% (inactive)
O=S(=O)(c1cccc2c(I)cccc12)N1CCCNCC1 | 114% (inactive)
O=c1[nH]c2ccccc2n1C1CCN(CCCC(c2ccc(F)cc2)c2ccc(F)cc2)CC1 | 52.9% (inactive)
O=c1[nH]c2cc([N+](=O)[O-])c([N+](=O)[O-])cc2[nH]c1=O | 104% (inactive)
CCn1ccnc1CC1COc2ccccc2O1 (stereo not drawn) | 100% (inactive)
C=C(C)[C@H]1Cc2c(ccc3c2O[C@@H]2COc4cc(OC)c(OC)cc4[C@@H]2C3=O)O1 | 0% (inactive)
CC(C)(C)NCC(O)COc1cccc2[nH]c(=O)[nH]c12 (stereo not drawn) | 103% (inactive)
COc1ccc(CCNC[C@@H](O)c2ccc(O)cc2)cc1OC | 105% (inactive)
COc1ccccc1N1CCN(CCN2C(=O)CC3(CCCC3)CC2=O)CC1 | 89.5% (inactive)
CCN(CC)CCCC(C)Nc1ccnc2cc(Cl)ccc12 (stereo not drawn) | 108% (inactive)
CC[C@@H]1C(=O)OC[C@@H]1Cc1cncn1C | 82.3% (inactive) and 90.8% (inactive)
Cc1sc2ccccc2c1CC1=NCCN1 | 92.5% (inactive)
CCNC(=O)[C@H]1O[C@@H](n2cnc3c(N)nc(NCCc4ccc(CCC(=O)O)cc4)nc32)C(O)[C@H]1O (stereo partly drawn) | 93.7% (inactive)
O=C(O)C1=CCCN(CCON=C(c2ccccc2)c2ccccc2)C1 | 104% (inactive)
Cc1o[nH]c(=O)c1CC(N)C(=O)O (stereo not drawn) | 104% (inactive)
CCCCCCC(C)(C)c1ccc([C@@H]2C[C@H](O)CC[C@H]2CCCO)c(O)c1 | 100% (inactive)
CNC(=O)OCC[N+](C)(C)C | 96.2% (inactive)

SMILES | vessel count % control
NS(=O)(=O)c1cc2c(cc1Cl)NCNS2(=O)=O | 103% (inactive)
CN(C)CCC(c1ccccc1)c1ccccn1 (stereo not drawn) | 109% (inactive)
O=S(=O)(c1cccc2c(Cl)cccc12)N1CCCNCC1 | 109% (inactive)
COC(=O)[C@H]1[C@H]2C[C@H]3c4[nH]c5ccccc5c4CCN3C[C@H]2CC[C@@H]1O | 110% (inactive)
CN1C2CCC1CC(OC(c1ccccc1)c1ccc(Cl)cc1)C2 (stereo not drawn) | 98.7% (inactive)
O=C(N[C@@H](Cc1ccccc1)C(=O)CCl)OCc1ccccc1 | 0% (inactive)
CCn1cc(C(=O)O)c(=O)c2ccc(Cc3ccccc3)nc21 | 108% (inactive)
CCCN(CCC)C1CCc2ccc(O)cc2C1 (stereo not drawn) | 87.6% (inactive)
CC(=O)OCC1=C(C(=O)[O-])N2C(=O)[C@@H](NC(=O)CCC[C@@H](N)C(=O)[O-])[C@H]2SC1.[Zn+2] | 106% (inactive)
Cc1nc2sccn2c(=O)c1CCN1CCC(=C(c2ccc(F)cc2)c2ccc(F)cc2)CC1 | 68.8% (inactive)
N#Cc1cc2nc(O)c(O)nc2cc1[N+](=O)[O-] | 94.9% (inactive)
CC(C)Cn1c(=O)n(C)c(=O)c2[nH]cnc21 | 78.7% (inactive)
CCCCNc1ccc(C(=O)OCCN(C)C)cc1 | 100% (inactive)
Cc1ccccc1CNc1ncnc2c1ncn2C1OC(CO)C(O)C1O (stereo not drawn) | 93.1% (inactive)
NO | 93.7% (inactive)
O=Nc1c(-c2c(O)[nH]c3ccc(S(=O)(=O)O)cc23)[nH]c2ccccc12 | 92.9% (inactive)
CCS(=O)(=O)Nc1cccc(C(=C2CCCCC2)c2cnc[nH]2)c1 | 98.4% (inactive)
Cn1cc(C2=C(c3ccc(Cl)cc3Cl)C(=O)NC2=O)c2ccccc21 | 0% (inactive)
NS(=O)(=O)c1cc2c(cc1Cl)NC(C1CC3C=CC1C3)NS2(=O)=O (stereo not drawn) | 107% (inactive)
NC(N)=Nc1nc(CSCC/C(N)=N/S(N)(=O)=O)cs1 | 113% (inactive)
CC(N)=NCc1cccc(CN)c1 | 104% (inactive)
CC(C)NC[C@H](O)COc1ccc(CC(N)=O)cc1 | 86.6% (inactive)
NC1(C(=O)O)CCCCC1 | 110% (inactive)
N#CC(=Cc1ccc(O)c(O)c1)C(N)=S | 118% (inactive)
CCCn1c(=O)c2[nH]c(C3CCCC3)nc2n(CCC)c1=O | 78.9% (inactive)

SMILES | vessel count % control
COc1cc(CC(C)N)c(OC)cc1I (stereo not drawn) | 79.5% (inactive)
Oc1[nH]c2ccccc2c1C1=Nc2ccc(Br)cc2/C1=N\OCCN1CCCC1 | 91.2% (inactive) and 74% (inactive)
CCCN(CCC)[C@H]1CCc2c(F)ccc(O)c2C1 | 93.1% (inactive)
COC(=O)c1c(C)[nH]c(C)c1C(=O)c1ccccc1Cc1ccccc1 | 102% (inactive)
S=C(S)OC1CC2CC1C1CCCC21 (stereo not drawn) | 86.8% (inactive)
CC(C)(C(=O)O)c1ccc(C(O)CCCN2CCC(C(O)(c3ccccc3)c3ccccc3)CC2)cc1 (stereo not drawn) | 116% (inactive)
COc1ccc(-c2ccc(N)[n+](CCCC(=O)O)n2)cc1 | 105% (inactive)
O=C(O)CC1CCCc2ccccc2C1O (stereo not drawn) | 137% (inactive)
O=C(O)CCCCCCCC(=O)O | 95.3% (inactive)
C[n+]1cc2c3c(ccc2c2ccc4cc5c(cc4c21)OCO5)OCO3 | 0% (inactive)
NC(N)=NCCC[C@H](N)C(=O)O | 94.3% (inactive)
CC(=O)[C@]1(O)Cc2c(O)c3c(c(O)c2[C@@H](O[C@H]2C[C@H](N)[C@H](O)[C@H](C)O2)C1)C(=O)c1ccccc1C3=O | 0% (inactive)
CC(C(O)c1ccc(O)cc1)N1CCC(Cc2ccccc2)CC1 (stereo not drawn) | 0% (inactive)
Cn1c(=O)c2[nH]c(-c3ccccc3)nc2n(C)c1=O | 117% (inactive)
CCCC(C)(COC(N)=O)COC(=O)NC(C)C (stereo not drawn) | 103% (inactive)
NCCc1c[nH]c2ccc(O)cc12 | 84.5% (inactive)
C[N+](C)(C)CCOC(=O)CBr | 95.6% (inactive)
O=C(O)[C@@H]1CCN1 | 84.3% (inactive)
CO/N=C(\C(=O)N[C@@H]1C(=O)N2C(C(=O)O)=C(COC(C)=O)CS[C@H]12)c1csc(N)n1 (stereo in doubt) | 104% (inactive)
CC(C)Cc1ccc([C@H](C)C(=O)O)cc1 | 66.8% (inactive)
CC(C)NCC(O)c1cc(O)cc(O)c1 (stereo not drawn) | 91.8% (inactive)
COc1ccc2c(c1)[C@@]13CCCC[C@H]1[C@@H](C2)NCC3 | 78.3% (inactive)
NC(=O)c1cc(N2CC2)c([N+](=O)[O-])cc1[N+](=O)[O-] | 107% (inactive)
